Consider five compounds from article PMC8754130, “A Peptide from Budding Yeast GAPDH Serves as a Promising Antifungal against Cryptococcus neoformans” (Microbiology Spectrum, 2022).

“And” between values parts separate entries of the source, which are not always exact repeats. Equal entries are not always repeated. Some results are limits rather than exact numbers.

The test system of series [1] is ergosterol in the cell membrane of C. neoformans (H99) cells. Nature of the series: Filipin III staining of membrane ergosterol. Type of series: cell-based, Cryptococcus neoformans. The conditions noted are these: 1 h. The text has this: All fluorescent images were collected with the confocal microscope (Olympus IX81) at a magnification of ×100 (oil immersion). […] Images were taken using the same confocal microscope described above. […] The fluorescent images of mitochondria were acquired on the confocal microscope (Leica SP8). At least 200 cells per sample were categorized based on their tubular or fragmented mitochondria morphologies. To quantify the fluorescent staining of ergosterol by filipin III, H99 cells with different treatment were stained by filipin III as described ([37]). The fluorescent images were acquired by the IX81 confocal microscope described above. The ImageJ was used to measure the mean fluorescent intensity. The statistical analysis of fluorescent intensity was based on three independent experiments. In each experiment, at least 100 cells were counted in three different visual fields.

Series [2] has as its system C. neoformans H99 cells. Put plainly: JC-10 mitochondrial membrane potential assay. It is filed as cell-based, Cryptococcus neoformans. The note with it: 8 μM, 37°C, 2 h; JC-10, flow cytometry; three experiments. How it is done: (§1) H99 cells were cultured in RPMI 1640 medium (Sigma, Shanghai) with 0.165 M MOPS (Sigma, Shanghai) overnight and diluted in fresh medium to an OD600 of 1. For the Annexin V-PI assay, the yeast protoplast preparation kit (BestBio, Shanghai) was used to prepare the protoplasts. […] The TUNEL assay was performed by using the Apoptosis Detection Kit (Yeasen, Shanghai) according to the manufacturer’s instructions. For JC-10 staining, H99 cells were stained by 30 μM JC-10 (Yeasen, Shanghai) and 0.02% Pluronic F-127(Beyotime, Shanghai) at 37°C for 30 min. The intracellular ROS was stained by the incubation with 5 μM H2DCFDA(MCE, Shanghai) at 37°C for 30 min. The stained samples were measured by BD FACSCalibur as described ([58]). The data were analyzed by FlowjoX. All experiments were repeated three times independently.

Series [3] is described as follows: Calcein leakage assay, fungal membrane mimic. The note with it: 4 μM; Tris buffer pH 7.4; fluorescence 10 min after addition; 100% = Triton X-100; three independent experiments. Here is the method:
These experiments were performed as previously described ([34]). Briefly, phospholipid vesicles were prepared from POPC: POPE (at a ratio of 1:4), POPC/POPE/Erg (at a ratio of 5:4:3), and POPC with 40% cholesterol, which mimics the cell membranes of bacterial, fungal, and mammalian cells, respectively. The resulting lipid film was suspended in Tris buffer (20 mM Tris, 100 mM NaCl, and 40 mM calcein, pH 7.4). Extravehicular buffer containing lipid vesicles with entrapped calcein was read in a fluorimeter using excitation at 490 nm and emission at 520 nm. […] The 10% Triton X-100 was used to disrupt lipid vesicles for obtaining the maximum fluorescence intensity.

The subject of series [4] is C. neoformans H99 protoplasts. Nature of the series: Annexin V staining (phosphatidylserine exposure), flow cytometry. It is filed as cell-based, Cryptococcus neoformans. The note with it: 2.5 μM, 1 h; three independent experiments. How it is done: as §1
Background: A flow cytometer gives signals particle by particle.

The subject of a further series is Cryptococcus neoformans. Nature of the series: organism not typed. The conditions noted are these: 37°C, 72 h, three independent experiments. Here is the method:
(§2) The MIC of the peptide was determined using a standardized micro-broth dilution method with a panel of pathogenic yeast strains (C. albicans, […], C. neoformans, and C. gattii) and bacterial strains (Escherichia coli, Micrococcus luteus, Staphylococcus aureus, and Pseudomonas aeruginosa).
(§3) The value of the MIC was defined as the lowest concentration of drugs showing no yeast growth. The MIC was determined by three independent repeats, each repeat in quintuplicate.

In series [5] the test system is C. neoformans H99 cells. Put plainly: Time-killing experiment (killing kinetics). Type of series: cell-based, Cryptococcus neoformans. The conditions noted are these: 2.5 μM (MIC of melittin), over 4 h, 37°C, RPMI 1640, CFU counting; three independent experiments.
Procedure: The time-killing experiment was performed as described ([17]). C. neoformans H99 cells were cultured in RPMI 1640 medium overnight, and the concentration was adjusted to 3 × 10^7 colony-forming units (CFU)/mL. […] Aliquots were taken out to wash and serially diluted 1:10 in RPMI 1640 medium to final concentration of nearly 300 CFU/mL, and plate on the YPD medium at the corresponding time points. After incubating at 37°C for 48 h, colonies were counted to calculate the survival rate. The percentage of CFU of growth control was set as 100%. The percentage of recovering CFU on plates was plotted against time. The data were obtained from three independent experiments.
The subject of series [6] is C. neoformans H99 protoplasts. Put plainly: PI staining of protoplasts, flow cytometry. Type of series: cell-based, Cryptococcus neoformans. The conditions noted are these: 2.5 μM, 1 h; around 30,000 protoplasts per treatment; three independent experiments. Here is the method:
as §1

The test system of series [7] is C. neoformans protoplasts. Nature of the series: Protoplast rupture experiment (microscopy). The conditions noted are these: 2.5 μM, 2 h; three experiments. Type of series: cell-based, Cryptococcus neoformans. The text has this:
Many antimicrobial peptides form pores in cell membranes to kill cells ([38]). […] To test this hypothesis, C. neoformans protoplasts were adopted for cell rupture experiments. Because the cell walls were digested with enzymes, the unprotected protoplasts could be easily ruptured following peptide-induced pore formation within the cell membrane. Moreover, without the structural support of a cell wall, cell rupture could be clearly observed under the microscope.

A further series deals with Aspergillus fumigatus. Nature of the series: MIC, micro-broth dilution (CLSI M27-A4). Type of series: cell-based. The note with it: Aspergillus fumigatus (YJ407), laboratory stock; three independent experiments. How it is done:
as §2, §3
Background: In broth dilution the organism is exposed to a series of concentrations in liquid medium.

The mark [8] stands for this setting: strain JEC21, RPMI 1640 + 0.165 M MOPS, lowest concentration showing no yeast growth.
Setting [9] is: Cryptococcus neoformans, fzc9Δ, FLC-resistant strain derived from H99, RPMI 1640 + 0.165 M MOPS.
Setting [10] is: Cryptococcus neoformans, gat5Δ, FLC-resistant strain derived from H99, RPMI 1640 + 0.165 M MOPS.
Setting [11] is: Cryptococcus neoformans, liv4Δ, FLC-resistant strain derived from H99, RPMI 1640 + 0.165 M MOPS.

`C[C@@H]1C/C=C/C=C/C=C/C=C/[C@H](O[C@@H]2O[C@H](C)[C@@H](O)[C@H](N)[C@@H]2O)C[C@@H]2O[C@](O)(C[C@@H](O)C[C@H]3O[C@@H]3/C=C/C(=O)O1)C[C@H](O)[C@H]2C(=O)O` [natamycin]: in series [1] (15 μM), the “filipin III signal” value is listed as “a decreased level of filipin III signal”.
For the compound “IRIAINGFGRIGRPPPRPPPQRKDIEVVA [control peptide]”, the “cells that lost their mitochondrial membrane potential” value in the series with C. neoformans H99 cells [2] is given as around 5%. Also, in series [3], the calcein leakage result is recorded as “did not induce calcein leakage”.
`CC[C@H](C)[C@H](NC(=O)CN)C(=O)NCC(=O)N[C@@H](C)C(=O)N[C@H](C(=O)N[C@@H](CC(C)C)C(=O)N[C@@H](CCCCN)C(=O)N[C@H](C(=O)N[C@@H](CC(C)C)C(=O)N[C@H](C(=O)N[C@H](C(=O)NCC(=O)N[C@@H](CC(C)C)C(=O)N1CCC[C@H]1C(=O)N[C@@H](C)C(=O)N[C@@H](CC(C)C)C(=O)N[C@H](C(=O)N[C@@H](CO)C(=O)N[C@@H](Cc1c[nH]c2ccccc12)C(=O)N[C@H](C(=O)N[C@@H](CCCCN)C(=O)N[C@@H](CCCNC(=N)N)C(=O)N[C@@H](CCCCN)C(=O)N[C@@H](CCCNC(=N)N)C(=O)N[C@@H](CCC(N)=O)C(=O)N[C@@H](CCC(N)=O)C(N)=O)[C@@H](C)CC)[C@@H](C)CC)[C@@H](C)O)[C@@H](C)O)C(C)C)C(C)C` [melittin]: the “phosphatidylserine exposure (annexin V)” value in series [4] is reported as “almost no phosphatidylserine exposure”. Further, in the series on Cryptococcus neoformans (strain H99, RPMI 1640 + 0.165 M MOPS), the MIC is 2.5 μM and 7.12 μg/mL. The cells killed in the series on C. neoformans H99 cells [5] was around 70%. In series [6], this compound returned a PI-positive protoplasts of around 70%. Further, the protoplasts ruptured in [7] is reported as around 80%.
For the compound `C[C@@H]1[C@H](O)[C@@H](C)/C=C/C=C/C=C/C=C/C=C/C=C/C=C/[C@H](O[C@@H]2O[C@H](C)[C@@H](O)[C@H](N)[C@@H]2O)C[C@@H]2O[C@](O)(C[C@@H](O)C[C@@H](O)[C@H](O)CC[C@@H](O)C[C@@H](O)CC(=O)O[C@H]1C)C[C@H](O)[C@H]2C(=O)O` [AmB, amphotericin B], the MIC in the series on Cryptococcus neoformans (setting [8]) is 0.4 µM; in the series on Cryptococcus neoformans (Cryptococcus neoformans, atf1Δ, AmB-resistant strain derived from H99, RPMI 1640 + 0.165 M MOPS) it was above 2.2 µM; with Cryptococcus neoformans (setting [9]), 1.1 µM and 1 µg/mL; with Cryptococcus neoformans (Cryptococcus neoformans, fzc51Δ, AmB-resistant strain derived from H99, RPMI 1640 + 0.165 M MOPS) it was > 2.2 µM and > 2 µg/mL; with Cryptococcus neoformans (setting [10]), 1.1 µM and 1 µg/mL; in the series with Cryptococcus neoformans (setting [11]), 1.1 µM and 1 µg/mL. The MIC in the series on Cryptococcus neoformans (Cryptococcus neoformans, strain H99, RPMI 1640 + 0.165 M MOPS) is 1.1 µM and 1 µg/mL; in the series with Cryptococcus neoformans (atf1Δ, AmB-resistant strain derived from H99, RPMI 1640 + 0.165 M MOPS), above 2 µg/mL; with Aspergillus fumigatus, 0.4 µM and 0.37 µg/mL. In addition, in [1] (1.1 μM), the “filipin III signal” value is “a decreased level of filipin III signal”.
For the compound `OC(Cn1cncn1)(Cn1cncn1)c1ccc(F)cc1F` [FLC, fluconazole], the MIC was 6.5 µM with Cryptococcus neoformans (setting [8]); above 26 µM with Cryptococcus neoformans (setting [9]); above 26 µM with Cryptococcus neoformans (setting [10]); above 26 µM in the series with Cryptococcus neoformans (setting [11]); above 8 µg/mL in the series with Cryptococcus neoformans (fzc9Δ, FLC-resistant strain derived from H99, RPMI 1640 + 0.165 M MOPS); above 8 µg/mL in the series on Cryptococcus neoformans (gat5Δ, FLC-resistant strain derived from H99, RPMI 1640 + 0.165 M MOPS). Moreover, the MIC in the series with Cryptococcus neoformans (liv4Δ, FLC-resistant strain derived from H99, RPMI 1640 + 0.165 M MOPS) was above 8 µg/mL. Moreover, the calcein leakage entry in series [3] is listed as “did not induce calcein leakage”.
